Among the data in patent US8440652B2, “MST1 kinase inhibitors and methods of their use” (Lexicon Pharmaceuticals, Inc., priority 2011, dated 2013) are IC50 and clinical score values, retold here.

For orientation: IC50 means the concentration needed to halve the response being measured.

Like-named read-outs stand apart in the source and are kept apart here.

One assay addresses T1, MST1 (Homo sapiens, UniProt Q13043).
T1 sequence (Q13043 1-487): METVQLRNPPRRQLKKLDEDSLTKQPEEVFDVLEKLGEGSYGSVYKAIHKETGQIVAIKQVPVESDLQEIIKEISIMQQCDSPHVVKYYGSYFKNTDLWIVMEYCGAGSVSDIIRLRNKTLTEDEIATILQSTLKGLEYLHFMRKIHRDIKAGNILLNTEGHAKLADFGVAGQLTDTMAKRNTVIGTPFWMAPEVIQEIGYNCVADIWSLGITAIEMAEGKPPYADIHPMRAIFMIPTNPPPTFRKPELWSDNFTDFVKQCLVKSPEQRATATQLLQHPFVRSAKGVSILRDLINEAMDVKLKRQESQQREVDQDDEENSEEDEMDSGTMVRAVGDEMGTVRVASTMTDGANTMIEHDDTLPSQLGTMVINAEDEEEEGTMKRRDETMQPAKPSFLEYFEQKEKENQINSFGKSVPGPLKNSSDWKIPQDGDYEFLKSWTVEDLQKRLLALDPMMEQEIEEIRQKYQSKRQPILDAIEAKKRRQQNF
The assay is described as follows: In vitro measurement of MST1 inhibition (Z′-Lyte kinase assay). The class given is biochemical.

The next assay deals with mouse EAE model. Description: Mouse EAE disease model. The class given is in vivo. To be noted: mice, subcutaneous dosing, 3 mg/kg, 10 mg/kg BID 12 days from Day 9 after MOG immunization; FIG. 9A. Here is the method:
Here, an adaptation of the method of Bettelli, et al., J. Immunol. 161:3299 (1998) was implemented. Eight to 12 weeks old C57Bl/6-Albino/129SvEv littermates were immunized subcutaneously with a total of 300 μg MOGp35-55 peptide ([…]) emulsified in complete Freund's adjuvant (CFA) containing 250 μg heat-inactivated Mycobacterium tuberculosis H37 Ra (Difco Laboratories). The antigen was divided equally across two injection sites in the abdominal flanks. Immediately following the injection of the emulsified antigen (day 0), each mouse received one intravenous injection of 500 ng of Pertussis toxin (List Biological Laboratories). Animal weights were recorded prior to the start of the experiment and monitored throughout the experiment, 2-3 times per week. Disease severity was scored on a scale as follows: 0=asymptomatic, no detectable sign of disease; 1=slight weakness of the tail/floppy tail and/or slumped hindquarters; 2=definite total paralysis of the tail; 3=mild waddle/distorted gait and total paralysis of the tail and/or mild impaired righting reflex; 4=heavy waddle with impaired control-weakness of hind limbs and/or impaired righting reflex; 5=paralysis of one of the hind limbs possibly with mild forelimb weakness; 6=paralysis of both hind limbs and/or moderate to severe forelimb weakness; 7=quadriplegia/paralysis of all limbs—hind and fore; 8=moribund/dead. […]

As to `CN(C1CC1)S(=O)(=O)c1ccc(-c2cnc(N)c(-c3ccc4c(c3)CCNC4=O)n2)cc1` [4-(5-amino-6-(1-oxo-1,2,3,4-tetrahydroisoquinolin-6-yl)pyrazin-2-yl)-N-cyclopropyl-N-methylbenzenesulfonamide], the IC50 on MST1 (1 μM ATP, read-out: IC50 (μM) 1 μM ATP) was under 0.01 µM; on MST1 (50 μM ATP, read-out: IC50 (μM) 50 μM ATP), under 0.01 µM. In addition, the clinical score result in the assay on mouse EAE model is “clear dose-dependency in clinical score”.
